Results as given in PMC12541610 (Acta Pharmaceutica Sinica. B, 2025).

Biological target: ATP synthase F1 subunit alpha (ATP5A1) (Mus musculus, UniProt Q03265)
Experiment: intrinsic fluorescence titration of purified protein
Type: binding

Chain of ATP synthase F1 subunit alpha (ATP5A1) (Q03265 whole entry): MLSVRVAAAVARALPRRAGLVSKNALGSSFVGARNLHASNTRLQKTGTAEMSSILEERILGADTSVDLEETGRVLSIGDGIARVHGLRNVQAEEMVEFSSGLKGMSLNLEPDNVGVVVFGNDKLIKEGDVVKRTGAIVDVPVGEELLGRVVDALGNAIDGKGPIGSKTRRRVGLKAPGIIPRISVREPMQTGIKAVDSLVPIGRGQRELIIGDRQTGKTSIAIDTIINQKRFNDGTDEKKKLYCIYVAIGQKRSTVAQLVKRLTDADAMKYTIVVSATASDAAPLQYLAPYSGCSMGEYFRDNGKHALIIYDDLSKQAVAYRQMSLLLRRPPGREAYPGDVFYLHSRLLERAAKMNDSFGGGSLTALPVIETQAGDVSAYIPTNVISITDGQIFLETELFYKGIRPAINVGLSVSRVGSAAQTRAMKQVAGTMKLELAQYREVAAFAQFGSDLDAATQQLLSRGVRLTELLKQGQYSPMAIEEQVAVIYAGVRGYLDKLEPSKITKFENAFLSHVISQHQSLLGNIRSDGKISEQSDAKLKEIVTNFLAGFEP

C=C(C)[C@@H]1CCC(C)=C[C@H]1c1c(O)cc(CCCCC)cc1O [Cannabidiol]
Kd: 4.9 ± 1.2 µM
